In patent US10851065B2 (Eisai R&D Management Co., Ltd., priority 2015, dated 2020):

Tests used:
[1] = tested on: MCF7-WT cells (MCF7 ER-alpha wildtype); experiment: In vitro proliferation (viability) assay, CellTiter-Glo, MCF7-WT cells; format: cell-based; conditions: Homo sapiens; MCF7-WT cells, 6 days, CTG vs day 0; mean ± SD-type spread (n); read-out: GI50 WT
Method: (§1) MCF7 BUS cells (Coser, et al., (2003) PNAS 100(24): 13994-13999) were maintained in Dulbecco's Modified Eagle Medium supplemented with 10% FBS, 4 mM L-glutamine and 1× non-essential amino acids. Lenti-X 293T cells (Clontech, Cat #632180) were routinely cultured in Dulbecco's Modified Eagle Medium supplemented with 10% FBS.
(§2) The QuikChange II XL Site-Directed Mutagenesis Kit (Agilent Technologies, Cat #200523) was used to generate Y537S, Y537C, Y537N and D538G mutations within the ERα exon 8. Wild-type ESR1 cDNA (GeneCopoeia Inc., Cat #GC-A0322, accession no. NM 000125) was used as a template with the following mutagenesis primers (where the underlined nucleotides represent site mutations); Y537S: F-AAGAACGTGGTGCCCCTCTCTGACCTGCTGCTGGAGATG (SEQ ID NO: 1), R-CATCTCCAGCAGCAGGTCAGAGAGGGGCACCACGTTCTT (SEQ ID NO: 2); Y537N: F-AAGAACGTGGTGCCCCTCAATGACCTGCTGCTGGAGATG (SEQ ID NO: 3), R-CATCTCCAGCAGCAGGTCATTGAGGGGCACCACGTTCTT (SEQ ID NO: 4); Y537C: F-AAGAACGTGGTGCCCCTCTGTGACCTGCTGCTGGAGATG (SEQ ID NO: 5), R-CATCTCCAGCAGCAGGTCACAGAGGGGCACCACGTTCTT (SEQ ID NO: 6); D538G: F-AACGTGGTGCCCCTCTATGGCCTGCTGCTGGAGATGCTG (SEQ ID NO: 7), R-CAGCATCTCCAGCAGCAGGCCATAGAGGGGCACCACGTT (SEQ ID NO: 8). WT and mutant ESR1 cDNAs were cloned into the designation lentiviral vector pLenti6.3/V5-Dest (Invitrogen, Cat #V533-06). To make lentivirus, DNAs (WT and mutant ESR1) were co-transfected with packaging plasmids into Lenti-X 293T cells using TransIT (Mirus, Cat #MIR 2700). 48 h post-transfection, virus containing media was filtered and added to MCF7 cells in the presence of 8 µg/ml polybrene overnight. Two days following infection, cells were placed under selection with 10 μg/ml blasticidin for 2 weeks for stable expression.
(§3) MCF7-WT and -Y537S cells were seeded at 1500 cells/well in black-walled 96-well plates (assay plates, Costar, Cat #3904). In parallel, cells were also seeded in a separate 96-well plate (8 wells/cell line, control plate) for which a CTG (CellTiter-Glo® Luminescent Viability Assay, Promega, Cat #G7572) was measured the following day (day 0 reading). The day 0 reading was used for the GI50 calculation at the termination of the experiment. The day following seeding, compounds were added to assay plates. Briefly, a 1:4 serial dilution was prepared in DMSO at 200× final concentration for a total of 10 concentrations (9 dilutions containing compound and one is DMSO only). Serially diluted compounds were pipetted into medium to prepare a compound-medium mix at 10× final concentration. 10 μl of compound-medium mix was added to MCF7-WT and -Y537S cells at 3 wells/concentration (triplicate for each concentration). On day 3, media/compound was removed and replaced with fresh media/compound as described above. On day 6, CTG was measured and compared to day 0 readings from control plate to assess GI50.

[2] = tested on: MCF7-Y537S cells (MCF7 ER-alpha Y537S mutant); experiment: In vitro proliferation (viability) assay, CellTiter-Glo, MCF7-Y537S cells; format: cell-based; conditions: Homo sapiens; MCF7-Y537S cells, 6 days, CTG vs day 0; mean ± SD-type spread (n); read-out: GI50 MUT (Y537S)
Method: as §1, §2, §3

Row | Compound | GI50 [1] | GI50 [2]
1 | CC/C(=C(/c1ccc(OCCNC/C=C/C(=O)N(C)C)cc1)c1ccc2[nH]ncc2c1)c1ccccc1C [Compound 36, (E)-4-((2-(4-((E)-1-(1H-indazol-5-yl)-2-(o-tolyl)but-1-en-1-yl)phenoxy)ethyl)amino)-N,N-dimethylbut-2-enamide] | 4.96 ± 3.1 nM | 25 ± 21.9 nM
2 | CC/C(=C(/c1cnc(OCCNC/C=C/C(=O)N(C)C)nc1)c1ccc2[nH]ncc2c1)c1ccccc1 [Compound 38, (E)-4-((2-((5-((Z)-1-(1H-indazol-5-yl)-2-phenylbut-1-en-1-yl)pyrimidin-2-yl)oxy)ethyl)amino)-N,N-dimethylbut-2-enamide] | 8.23 ± 5.32 nM | 159 ± 128 nM
3 | O=C(/C=C/CNCCOc1ccc(/C(=C(\c2ccccc2)C2CCC2)c2ccc3[nH]ncc3c2)cc1)N1CCC1 [Compound 39, (E)-1-(azetidin-1-yl)-4-((2-(4-((E)-2-cyclobutyl-1-(1H-indazol-5-yl)-2-phenylvinyl)phenoxy)ethyl)amino)but-2-en-1-one] | 1.79 ± 0.47 nM | 31.8 ± 4.85 nM
4 | O=C(/C=C/CNCCOc1ccc(/C(=C(\c2ccccc2)C2CCC2)c2ccc3[nH]nc(F)c3c2)cc1)N1CCC1 [Compound 40, (E)-1-(azetidin-1-yl)-4-((2-(4-((E)-2-cyclobutyl-1-(3-fluoro-1H-indazol-5-yl)-2-phenylvinyl)phenoxy)ethyl)amino)but-2-en-1-one] | 7.52 ± 4.52 nM | 94.5 ± 20.8 nM
5 | CN(CCO)C(=O)/C=C/CNCCOc1ccc(/C(=C(\c2ccccc2)C2CCC2)c2ccc3[nH]ncc3c2)cc1 [Compound 41, (E)-4-((2-(4-((E)-2-cyclobutyl-1-(1H-indazol-5-yl)-2-phenylvinyl)phenoxy)ethyl)amino)-N-(2-hydroxyethyl)-N-methylbut-2-enamide] | 3.84 nM | 66.3 nM
6 | Cc1ccccc1/C(=C(\c1ccc(OCCNC/C=C/C(=O)N2CCC2)cc1)c1ccc2[nH]ncc2c1)C1CCC1 [Compound 42, (E)-1-(azetidin-1-yl)-4-((2-(4-((E)-2-cyclobutyl-1-(1H-indazol-5-yl)-2-(o-tolyl)vinyl)phenoxy)ethyl)amino)but-2-en-1-one] | 2.68 ± 1.66 nM | 69.4 ± 29.1 nM
7 | CC/C(=C(/c1ccc(OCCNC/C=C/C(=O)N(C)C)cc1)c1ccc2[nH]nc(F)c2c1)c1ccccc1F [Compound 43, (E)-4-((2-(4-((E)-1-(3-fluoro-1H-indazol-5-yl)-2-(2-fluorophenyl)but-1-en-1-yl)phenoxy)ethyl)amino)-N,N-dimethylbut-2-enamide] | 1.94 nM | 47.3 nM
8 | CC/C(=C(/c1ccc(OCCNC/C=C/C(=O)N(C)C)cc1)c1ccc2[nH]nc(F)c2c1)c1cccc(F)c1 [Compound 44, (E)-4-((2-(4-((E)-1-(3-fluoro-1H-indazol-5-yl)-2-(3-fluorophenyl)but-1-en-1-yl)phenoxy)ethyl)amino)-N,N-dimethylbut-2-enamide] | 4.91 nM | 180 nM
9 | CC/C(=C(/c1ccc(OCCNC/C=C/C(=O)N(C)C)cc1)c1ccc2[nH]nc(F)c2c1)c1ccc(F)cc1 [Compound 45] | 4.14 nM | 104 nM

Results, then the compound that gave them:

Row | GI50 [1] | GI50 [2] | Compound
10 | 0.95 nM | 12.4 nM | CN(C)C(=O)/C=C/CNCCOc1ccc(/C(=C(\c2ccc(F)cc2Cl)C2CCC2)c2ccc3[nH]nc(F)c3c2)cc1 [Compound 46, (E)-4-((2-(4-((E)-2-(2-chloro-4-fluorophenyl)-2-cyclobutyl-1-(3-fluoro-1H-indazol-5-yl)vinyl)phenoxy)ethyl)amino)-N,N-dimethylbut-2-enamide]
11 | 5.4 nM | 288 nM | CC/C(=C(/c1ccc(OCCNC/C=C/C(=O)N(C)C)c(F)c1)c1ccc2[nH]nc(F)c2c1)c1ccccc1 [Compound 49, (E)-4-((2-(2-fluoro-4-((Z)-1-(3-fluoro-1H-indazol-5-yl)-2-phenylbut-1-en-1-yl)phenoxy)ethyl)amino)-N,N-dimethylbut-2-enamide]
12 | 2.46 nM | 67.5 nM | CC/C(=C(/c1ccc(OCCNC/C=C/C(=O)N(C)C)cc1)c1ccc2[nH]nc(F)c2c1)c1c(F)cccc1F [Compound 50, (E)-4-((2-(4-((E)-2-(2,6-difluorophenyl)-1-(3-fluoro-1H-indazol-5-yl)but-1-en-1-yl)phenoxy)ethyl)amino)-N,N-dimethylbut-2-enamide]
13 | 20.9 nM | 347 nM | CC/C(=C(/c1ccc(OCCNC/C=C/C(=O)N(C)C)cc1)c1ccc2[nH]nc(F)c2c1)c1cccnc1 [Compound 51, (E)-4-((2-(4-((E)-1-(3-fluoro-1H-indazol-5-yl)-2-(pyridin-3-yl)but-1-en-1-yl)phenoxy)ethyl)amino)-N,N-dimethylbut-2-enamide]
14 | 2.9 nM | 85.8 nM | CC/C(=C(/c1ccc(OCCNC/C=C/C(=O)N(C)C)cc1)c1ccc2[nH]nc(F)c2c1)c1ccncc1 [Compound 52, (E)-4-((2-(4-((E)-1-(3-fluoro-1H-indazol-5-yl)-2-(pyridin-4-yl)but-1-en-1-yl)phenoxy)ethyl)amino)-N,N-dimethylbut-2-enamide]
15 | 3.59 nM | 76.5 nM | CN(CCO)C(=O)/C=C/CNCCOc1ccc(/C(=C(\c2ccccc2)C2CCC2)c2ccc3[nH]nc(F)c3c2)cc1 [Compound 53, (E)-4-((2-(4-((E)-2-cyclobutyl-1-(3-fluoro-1H-indazol-5-yl)-2-phenylvinyl)phenoxy)ethyl)amino)-N-(2-hydroxyethyl)-N-methylbut-2-enamide]
16 | 7.97 ± 1.65 nM | 160 ± 39.6 nM | C/C(=C(/c1ccc(OCCNC/C=C/C(=O)N(C)C)cc1)c1ccc2[nH]ncc2c1)c1ccccc1 [Compound 54, (E)-4-((2-(4-((E)-1-(1H-indazol-5-yl)-2-phenylprop-1-en-1-yl)phenoxy)ethyl)amino)-N,N-dimethylbut-2-enamide]
17 | 3.78 ± 1.75 nM | 63.6 ± 18.4 nM | CN(C)C(=O)/C=C/CNCCOc1ccc(/C(=C(\c2ccccc2)C2CC2)c2ccc3[nH]ncc3c2)cc1 [Compound 56, (E)-4-((2-(4-((E)-2-cyclopropyl-1-(1H-indazol-5-yl)-2-phenylvinyl)phenoxy)ethyl)amino)-N,N-dimethylbut-2-enamide]
18 | 1.9 nM | 36.2 nM | CC/C(=C(/c1ccc(OCCNC/C=C/C(=O)N(C)C)cc1)c1ccc2[nH]ncc2c1F)c1ccc(F)cc1Cl [Compound 57, (E)-4-((2-(4-((E)-2-(2-chloro-4-fluorophenyl)-1-(4-fluoro-1H-indazol-5-yl)but-1-en-1-yl)phenoxy)ethyl)amino)-N,N-dimethylbut-2-enamide]
19 | 1.3 ± 0.4 nM | 17.9 ± 4.5 nM | CC/C(=C(/c1ccc(OCCNC/C=C/C(=O)N(C)C)nc1)c1ccc2[nH]nc(F)c2c1)c1ccc(F)cc1Cl [Compound 58, (E)-4-((2-((5-((Z)-2-(2-chloro-4-fluorophenyl)-1-(3-fluoro-1H-indazol-5-yl)but-1-en-1-yl)pyridin-2-yl)oxy)ethyl)amino)-N,N-dimethylbut-2-enamide]
20 | 0.33 ± 0.18 nM | 15.2 ± 3.7 nM | CN(C)C(=O)/C=C/CNCCOc1ccc(/C(=C(/CC(F)(F)F)c2ccc(F)cc2Cl)c2ccc3[nH]nc(F)c3c2)cn1 [Compound 59, (E)-4-((2-((5-((Z)-2-(2-chloro-4-fluorophenyl)-4,4,4-trifluoro-1-(3-fluoro-1H-indazol-5-yl)but-1-en-1-yl)pyridin-2-yl)oxy)ethyl)amino)-N,N-dimethylbut-2-enamide]
